Several values for one entry are separate records, joined by “and”; a condition that tells them apart may be missing. Equal values may be shown once.
What was measured:
HCoV-OC43 [1] = experiment: Time-of-addition, TCID50 on Vero E6, HCoV-OC43; assay type: cell-based, Human coronavirus OC43; conditions: HCoV-OC43, titrated on Vero E6, 48 h
Description: HCoV-OC43 (KBPV-VR-8), HCoV-NL63 (KBPV-VR-88), and PEDV DR13 (originally described in [20]) were used. HCoV-NL63 was propagated in LLC-MK2 cells, and HCoV-OC43 and PEDV DR13 were propagated in Vero E6 cells. Virus-containing supernatants were clarified (2000× g, 10 min, 4 °C), aliquoted, and stored at −80 °C. Infectious titers (TCID50/mL) were determined on the corresponding host cell lines by the Spearman–Kärber method with back-titrations included in each experiment.
(§1) For HCoV-OC43, TOA was assessed by CPE reduction in MRC-5 cells and by TCID50 on Vero E6 (no IFA collected).
(§2) Figure S14. Time-of-addition (TOA) analysis of KB-2777 against HCoV-NL63 (48 h). (a) CPE-reduction assay. KB-2777 was applied at 20 µM (blue) or 5 µM (red) under the indicated TOA conditions (Full, Pre, Co, Post, DMSO).
Cell protection (%) was calculated relative to the DMSO control. […] (b) Infectious progeny released under the same TOA conditions, quantified as log10(TCID₅₀/mL) from culture supernatants (see Methods). […]
(§3) Figure S15. […] Cell protection (%) was calculated relative to the DMSO control. […]
(§4) Statistics: one-way ANOVA with Dunnett’s multiple comparisons vs DMSO; *P<0.05, **P<0.01, ***P<0.001, ****P<0.0001. (b) Infectious progeny released under the same TOA conditions, quantified as log₁₀(TCID₅₀/mL) from culture supernatants by endpoint dilution on Vero E6 indicator cells (Spearman–Kärber method; see Methods). […]

[2] = Visible crystals or precipitates in the cell assay (soluble range); assay type: physicochemical; conditions: cell assay medium; without loss of viability or morphological change
Description: (§5) We screened 11 oxazole-4-carboxamide derivatives (Figure 1) against HCoV-NL63 in LLC-MK2 cells and quantified antiviral activity and cytotoxicity (Figure 2). Several derivatives inhibited NL63 with distinct selectivity profiles. […] Visible crystals or precipitates formed at ≥50 µM without loss of viability or morphological change; therefore, downstream assays were performed at ≤25 µM.

HCoV-NL63 [3] = experiment: Primary antiviral screening (virus inhibition) in HCoV-NL63-infected LLC-MK2 cells; assay type: cell-based, Human coronavirus NL63
Description: (§6) For antiviral activity, cells in 96-well plates were infected and treated with test compounds as indicated and incubated for 48–72 h. Cell viability was quantified by WST (EZ-Cytox) at 450 nm on the same reader. Cytoprotective effect was calculated by normalizing to infected DMSO controls and converting to percent protection: % Protection = ((V_drug + virus − V_virus-only)/(V_mock − V_virus-only)) × 100.
as §5

[4] = system: HCoV-NL63-infected LLC-MK2 cells; experiment: Propidium iodide (PI) live/dead imaging in HCoV-NL63/LLC-MK2; assay type: cell-based, rhesus monkey; conditions: 20 µM post-treatment, 48 h post-infection, vs virus + DMSO, p < 0.01
Description: Cells were infected as in the immunofluorescence assay (IFA) and were post-treated with KB-2777 (20 µM, DMSO ≤ 0.1%). At 48 h post-infection, cells were stained live with PI (approximately 1 µg/mL, 30 min) and were immediately imaged (PI/Hoechst). For each field, we counted total nuclei (Hoechst), NL63 S-positive cells, PI-positive cells, and double-positive (S∩PI) cells. Outcomes were % PI^+/Total and % PI^+ among infected cells (PI^+/NL63 S^+). […] Statistics used the Mann–Whitney U test (two-tailed).

HCoV-OC43 [5] = experiment: Time-of-addition, CPE reduction in MRC-5 cells, HCoV-OC43; assay type: cell-based, Human coronavirus OC43; conditions: HCoV-OC43, MRC-5 cells, 48 h
Description: as §6, §1, §2
Cell protection (%) was calculated relative to the DMSO control. Bars show mean ± SD (n = 3). […] (b) Infectious progeny released under the same TOA conditions, quantified as log10(TCID₅₀/mL) from culture supernatants (see Methods). […]
as §3, §4

HCoV-NL63 [6] = experiment: Extracellular viral RNA by RT-qPCR of supernatants, HCoV-NL63/LLC-MK2; assay type: cell-based, Human coronavirus NL63
Description: […] Viral RNA was extracted using the QIAamp Viral RNA Mini Kit (Qiagen, Hilden, Germany)according to the manufacturer’s instructions and quantified by one-step RT-qPCR on a real-time thermocycler.
EC50 values were determined from concentration–response curves generated by 2-fold serial dilutions, with at least four concentration points per curve. Each measurement was performed in triplicate technical replicates. Unless otherwise indicated, data are presented as mean ± SEM from three independent biological experiments (n = 3).
For absolute quantification, synthetic DNA (oligonucleotide) standards corresponding to the NL63, OC43, and PEDV amplicons were used. Ten-fold serial dilutions were prepared to generate standard curves. Ct values were interpolated against the curves to obtain gene copies per reaction and converted to genome copies per mL by accounting for extraction and elution volumes and the qPCR input volume.

## COc1cccc(-c2oc(-c3ccc(C(F)(F)F)cc3)nc2C(=O)NCC2CC2)c1 [KB-2777, N-(cyclopropylmethyl)-5-(3-methoxyphenyl)-2-(4-(trifluoromethyl)phenyl)Oxazole-4-Carboxamide]
HCoV-OC43 [1]
  TCID50 across TOA regimens: greatest antiviral effect with full exposure, intermediate activity with pre- and post-treatment, and little or no effect with co-treatment
[2]
  concentration at which visible crystals or precipitates formed: ≥ 50 µM
HCoV-NL63 [3]; HCoV-NL63/LLC-MK2
  SI (=CC50/EC50): > 8 and >8.28
HCoV-NL63 [3]; Human coronavirus NL63, LLC-MK2, HCoV-NL63/LLC-MK2, primary screen, read-out: EC50
  EC50: 6.04 µM
[4]
  % PI+ among infected cells (PI+/NL63 S+): reduces
  % PI+/Total cells: reduces
HCoV-OC43 [5]
  CPE reduction across TOA regimens: greatest antiviral effect with full exposure, intermediate activity with pre- and post-treatment, and little or no effect with co-treatment
HCoV-NL63 [6]; HCoV-NL63, post-treatment regimen, 24 h post-infection, 0–25 µM
  inhibition of viral RNA at 24 h: minimal
HCoV-NL63 [6]; Human coronavirus NL63, LLC-MK2, HCoV-NL63, post-treatment regimen, 48 h post-infection, read-out: EC50 (viral RNA, RT-qPCR) at 48 h
  EC50: 2.42 µM
HCoV-NL63 [6]; Human coronavirus NL63, LLC-MK2, HCoV-NL63, post-treatment regimen, 72 h post-infection, read-out: EC50 (viral RNA, RT-qPCR) at 72 h
  EC50: 5.25 µM
HCoV-NL63 [6]; Human coronavirus NL63, HCoV-NL63/LLC-MK2, 72 h post-infection, n = 3, read-out: EC50 (viral RNA, RT-qPCR)
  EC50: 5.27 µM

Source: article PMC12655682, “Screening-Identified Oxazole-4-Carboxamide KB-2777 Exhibits In Vitro Anti-Coronavirus Activity” (Pharmaceutics, 2025)
